These results are taken from paper PMC8999917, “Structure–Activity Relationship of Synthetic Ginkgolic Acid Analogs for Treating Type 2 Diabetes by PTPN9 Inhibition” (International Journal of Molecular Sciences, 2022).

This test addresses T1, DUSP9 (Homo sapiens, UniProt Q99956).
T1 construct: made in house; host or cells: Escherichia coli Rosetta (DE3)
T1 sequence (Q99956 1-384): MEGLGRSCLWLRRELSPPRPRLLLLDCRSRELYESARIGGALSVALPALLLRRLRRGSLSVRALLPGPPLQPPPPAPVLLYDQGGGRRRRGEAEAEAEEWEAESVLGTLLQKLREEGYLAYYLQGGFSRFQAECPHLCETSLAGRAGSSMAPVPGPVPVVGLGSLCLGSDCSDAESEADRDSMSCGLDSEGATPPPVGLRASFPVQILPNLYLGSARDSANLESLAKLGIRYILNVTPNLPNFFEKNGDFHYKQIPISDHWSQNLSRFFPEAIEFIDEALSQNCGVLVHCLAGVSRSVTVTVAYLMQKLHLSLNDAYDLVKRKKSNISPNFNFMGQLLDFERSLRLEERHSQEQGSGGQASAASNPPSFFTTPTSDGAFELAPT
Description: DUSP9 enzyme inhibition with DiFMUP substrate. The test is classed as biochemical. The settings on record: DiFMUP 90 µM, DUSP9 200 nM; NA: no activity. Here is the method:
The purification and kinetic analyses of PTPN9 and DUSP9 (Ser277–581) were performed following methods described in the literature, with slight modifications. PAGE analysis data and enzyme kinetic constants are presented in Figure S1 and Table S1, respectively. Enzyme activity in the presence or absence of the compounds was measured using DiFMUP, a representative PTP fluorogenic substrate. First, the inhibitory effects of compounds 1–3 were evaluated using 50 µM PTPN9 and 20 µM DUSP9. There was an increase in the inhibitory activity of compound 1 for both enzymes as the number of CH2 units increased from 9 to 14 (Figure 2A,B).
Next, the IC50 values of the compounds, which induce a 50% inhibition of DiFMUP hydrolytic enzyme activity, were determined (Table 1). The IC50 values were determined from the dose–response enzyme inhibition curves of each compound. The dose–response curves for compounds 1e and 1f against PTPN9 and DUSP9, respectively, are presented in Figure 2C,D. Dose–response curves were also obtained for the other compounds (Figures S2 and S3).
The methods employed for PTP overexpression and purification have been described in a previous study. In brief, human PTPN9 and DUSP9 were cloned into a pET28a vector (Merk Millipore, Darmstadt, Germany) containing a hexahistidine (His6) tag or a maltose-binding protein (MBP) tag in its N-terminus (see Supplementary Materials). Recombinant genes were separately transformed into Escherichia coli Rosetta (DE3) (Merk Millipore, Darmstadt, Germany), and the overexpression of each gene was induced via the addition of 0.1 mM IPTG (Ducherfa Biochemie, Haarlem, RV, USA). After 16 h of incubation at 18 °C, cell pellets were obtained via centrifugation (3570× g at 4 °C for 15 min), resuspended in lysis buffer (50 mM Tris, pH: 7.5, 500 mM NaCl, 5% glycerol, 0.025% 2-mercaptoethanol, and 1 mM phenyl-methylsulfonyl fluoride (PMSF)), and lysed by ultrasonication. Subsequently, cell lysates were centrifuged at 29,820× g for 30 min at 4 °C; then, the supernatant was collected and incubated with a cobalt affinity resin (TALON® Metal Affinity Resin, Takara Korea, Seoul, Korea). After 1 h of incubation at 4 °C, the desired proteins were eluted by adding the lysis buffer supplemented with 100 mM imidazole. Samples were stored at –80 °C until use.
The enzymatic activities of purified PTPN9 and DUSP9 were measured using 6,8-difluoro-4-methylumbelliferyl phosphate (DiFMUP), the most widely used fluorogenic PTP substrate in the literature. To determine KM values, PTPN9 (0.15 nM) and DUSP9 (200 nM) were added to a reaction buffer (20 mM Bis-tris, pH: 7.0, 150 mM NaCl, 2.5 mM dithiothreitol (DTT), and 0.01% Triton X-100) containing DiFMUP (800, 400, 200, 100, 50, 25, 12.5, or 6.25 μM) in a 96-well black plate. The final reaction volume was 100 µL. The fluorescence intensity was continuously monitored for 10 min (Ex/Em = 355/460 nm) on a Victor™ X4 multilabel plate reader (Perkin Elmer, Norwalk, CT, USA). KM values were obtained using Lineweaver–Burk plots analysis.
To evaluate the enzyme inhibitory effects of GA and its analogs, 10 µl of the enzyme stock solution (1.5 nM PTPN9 and 2 µM DUSP9) in the reaction buffer was added into the mixture of DiFMUP (to a final concentration of 220 µM and 90 µM for PTPN9 and DUSP9, respectively) and each compound (to a final concentration of 50 µM and 20 µM for PTPN9 and DUSP9, respectively) was added to the reaction buffer. Enzyme activity was measured as described above. Half-inhibitory concentration (IC50) values were determined under similar conditions, except for the concentrations of the inhibitors (200, 100, 50, 25, 12.5, 6.25, or 3.125 µM for PTPN9 and 25, 12.5, 6.25, 3.125, 1.563, 0.782, or 0.391 µM for DUSP9). The dose-dependent curve was fitted to the four-parameter logistic regression equation, (y = a + (b – a)/(1 + (x/c)^d), to obtain IC50 values using the Kaleida Graph software Ver. 4.1.3. (Synergy Software Inc, PA, USA).

Turning to `CCCCCCCCCCCCCOc1cccc(O)c1C(=O)O` [Compound 1e], the IC50 (as a rule, the concentration at which inhibition is half-maximal) turned out to be 6.4 ± 0.87 µM. As for `CCCCCCCCCCCCCCCOc1cccc(O)c1C(=O)O` [Compound 1f], the IC50 stood at 5.87 ± 0.55 µM.
